{"source": "paper PMC8224453", "about": "“A New PqsR Inverse Agonist Potentiates Tobramycin Efficacy to Eradicate Pseudomonas aeruginosa Biofilms” (Advanced Science, 2021)", "key": {"P. aeruginosa NH57388A": {"test_system": "P. aeruginosa NH57388A", "assay": "Murine mucoid lung infection model, target engagement", "assay_type": "in vivo, Pseudomonas aeruginosa", "method": "We, therefore, decided to make use of a murine sub‐chronic infection model with a mucoid infection phenotype specifically enabling to assess the on‐target activity of QSIs. […] Animals were immediately treated with QSI 4 co‐administered using methyl cellulose (dose = 5 mg kg^−1) or vehicle (control), followed by further treatments at 24 and 48 h post‐infection. The lungs were harvested at 72 h time point, homogenized and extracted using ethyl acetate. As a readout for target engagement, we quantified the signal molecule levels of HHQ, PQS, and HQNO as proximal biomarkers for the activity of the bacterial target. […] In addition, we measured bacterial burden in form of CFU count as a treatment endpoint (Section S6.3, Supporting Information). […] Moreover, CFU was reduced by four‐fold upon treatment with QSI 4 (see Table S11 in the Supporting Information). […] However, considering the impact of the host immune system on bacterial clearance and the action of some PqsR‐controlled virulence factors toward immune‐system evasion (biofilm formation, pyocyanin production, elastase LasB expression), an indirect effect on the bacterial load in the lungs is plausible. However, it has to be stated that this effect is only minor compared to typical 2‐ to 4‐log unit reductions achieved by early antibiotic treatment.^[ ^31 ^]\n6.3. Design of in vivo Target Engagement Study\nGeneral. Mouse experiments were approved by the Landesamt für Soziales, Gesundheit und Verbraucherschutz of the State of Saarland in accordance with the national guidelines for animal treatment on August, 17th, 2017 (22/2017). The IVC unit was located within a biosafety level 2 laboratory and mice were allowed to acclimatize to their environment for at least seven days prior to the experiment. Throughout the experiment, the mice had access to water and food ad libitum.\nBackground studies were performed in order to generate typical mean and standard deviation values for biomarkers of the control group. Sample size was calculated using BiAS.\n(Software Version 11.08) from these values with alpha = 0.05 and P = 0.8 for biomarker reduction of 80% resulting in a sample size of ten mice or higher for a two-sample t-test.\nPrimary study. Ten-week old female C57BL/6N mice were housed in an individually ventilated-cage unit with ten mice per cage and twenty mice in total. One group (from one cage) was treated with compound 4, while the other group received a sham treatment with vehicle. Mice were not randomized, and no blinding was applied.\nFor the infection, each mouse was anesthetized intraperitoneally with 2.025 mg of ketaminhydrochloride (Ursotamin, Serumwerk Bernburg, Germany) and 0.12 mg of xylazinhydrochloride (Xylazin, WDF, Serumwerk Bernburg). Lidocainhydrochloride (Xylocain; Aspen Pharma, Ireland) was used for local anesthesia of the epiglottis before endotracheal intubation with a flexible cannula and intra-tracheal application of the inoculum […]\nApplication of inoculum (start of infection, 0 h) using 20 µL viable P. aeruginosa NH57388A culture supplemented with sodium alginate (22 mg/mL, Sigma). These were mixed with 20 µL of either compound 4 (5 mg/kg BW suspended in 0.1% methylcellulose) or vehicle (0.1% methylcellulose) to conduct the first treatment simultaneously to infection via intra-tracheal application assisted by endotracheal intubation using a flexible cannula. Bacterial load was determined to be 5∙10^7 CFU per mouse by plating serial dilutions on LB-agar plates.\nSubsequent treatments were performed at 24 and 48 h post infection with 20 µL of compound 4 (5 mg/kg BW suspended in 0.5% methylcellulose, 0.2 vol-% Tween-80) or vehicle (0.5% methylcellulose, 0.2 vol-% Tween 80) were administered intra-tracheally following the same procedure as the infection. 72 h post infection mice were euthanized, lungs were removed aseptically and homogenized in 500 µL sterile phosphate buffered saline over the course of […]\n72 h. Again, bacterial load was determined by plating serial dilutions on LB-agar plates. The […]"}, "[1]": {"assay": "Metabolic stability, monkey liver S9", "assay_type": "in vitro ADME", "conditions": "pooled liver S9 fraction, Table S4, read-out: t1/2 monkey liver S9", "method": "For the evaluation of combined phase I and phase II metabolic stability, the compound (1 μM) was incubated with 1 mg/mL pooled liver S9 fraction from the respective species (Xenotech), […]\n2 mM NADPH, 1 mM UDPGA, 10 mM MgCl2, 5 mM GSH and 0.1 mM PAPS at 37 °C for […]\n0, 5, 15, 30 or 60 min. The metabolic stability of Testosterone (1 μM) and verapamil (1 μM) […]\nwere determined in parallel to confirm the enzymatic activity of the S9 fraction. The […]\nincubation was stopped by precipitation of S9 enzymes with 2 volumes of cold acetonitrile […]\ncontaining internal standard (750 nM Diphenhydramine). Samples were stored on ice for 10 […]\nmin and precipitated protein was removed by centrifugation (10 min, 4 °C, 17,000 g).\nConcentration of the remaining test compound at the different time points was analyzed by […]\nLC-MS/MS (TSQ Quantum Access MAX, Thermo Fisher, Dreieich, Germany) and used to […]\ndetermine half-life (t1/2). Stability of compound 4 in further S9 fractions are summarized in […]\nTable S4. Metabolic stability studies in various S9 fractions. […]"}, "[2]": {"conditions": "treated group, n = 7, 72 h, below LLOQ"}}}
{"compound": "FC(F)(F)c1cc(NCc2cn(-c3ccc(Oc4ccccc4)cc3)nn2)ccn1", "note": "[Compound 4]", "values": [{"measurement": "reduction of CFU / bacterial load upon treatment", "setting": "P. aeruginosa NH57388A; mice, 5 mg kg^−1, 72 h", "result": "four‐fold"}, {"measurement": "auto‐inducer levels (HHQ, PQS, HQNO) in infected lungs", "setting": "P. aeruginosa NH57388A; mice, 5 mg kg^−1, 72 h, p < 0.05", "result": "reduced significantly"}, {"measurement": "CFU/mouse Mean", "setting": "P. aeruginosa NH57388A; treated group, n = 7, 72 h", "result": 173600, "unit": "CFU/mouse"}, {"measurement": "CFU/mouse Median", "setting": "P. aeruginosa NH57388A; treated group, n = 7, 72 h", "result": 147500, "unit": "CFU/mouse"}, {"measurement": "HHQ Mean", "setting": "P. aeruginosa NH57388A; treated group, n = 7, 72 h", "result": 1.7, "unit": "pmol"}, {"measurement": "HHQ Median", "setting": "P. aeruginosa NH57388A; treated group, n = 7, 72 h", "result": 0.9, "unit": "pmol"}, {"measurement": "HQNO Mean", "setting": "P. aeruginosa NH57388A; treated group, n = 7, 72 h", "result": 5.2, "unit": "pmol"}, {"measurement": "HQNO Median", "setting": "P. aeruginosa NH57388A; treated group, n = 7, 72 h", "result": 2.3, "unit": "pmol"}, {"measurement": "PQS Mean", "setting": "P. aeruginosa NH57388A; [2]", "result": 0.3, "unit": "pmol"}, {"measurement": "PQS Median", "setting": "P. aeruginosa NH57388A; [2]", "result": 0.2, "unit": "pmol"}, {"measurement": "Reduction through treatment, CFU/mouse", "setting": "P. aeruginosa NH57388A; treated vs untreated means", "result": 77.3, "unit": "%"}, {"measurement": "Reduction through treatment, HHQ", "setting": "P. aeruginosa NH57388A; treated vs untreated means", "result": 99.3, "unit": "%"}, {"measurement": "Reduction through treatment, HQNO", "setting": "P. aeruginosa NH57388A; treated vs untreated means", "result": 98.3, "unit": "%"}, {"measurement": "Reduction through treatment, PQS", "setting": "P. aeruginosa NH57388A; treated vs untreated means", "result": 99.1, "unit": "%"}, {"measurement": "half-life at 1 μM", "setting": "[1]", "result": "22.8 ± 6.7", "unit": "min"}]}
